According to PubChem BioAssay (NCI):
“And” between values parts separate entries of the source, which are not always exact repeats. Equal entries are not always repeated.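 Following 48 hours of exposure in 96-well plates, responses at five concentrations were used to interpolate endpoints linearly. The concentration for 50% growth inhibition is given as GI50. At the TGI there is no net growth.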

Tests used:
Test in all cases: growth of human tumour cells (NCI), 48 h
CAKI-1 renal = tested on: CAKI-1 renal
CCRF-CEM leukemia = tested on: CCRF-CEM leukemia
HCC-2998 colon = tested on: HCC-2998 colon
HCT-116 colon = tested on: HCT-116 colon
OVCAR-3 ovarian = tested on: OVCAR-3 ovarian
SK-MEL-28 melanoma = tested on: SK-MEL-28 melanoma
UACC-62 melanoma = tested on: UACC-62 melanoma
MALME-3M melanoma = tested on: MALME-3M melanoma

| Compound | TGI (CAKI-1 renal) | TGI (CCRF-CEM leukemia) | TGI (HCC-2998 colon) | TGI (HCT-116 colon) | TGI (OVCAR-3 ovarian) | TGI (SK-MEL-28 melanoma) | TGI (UACC-62 melanoma) | TGI (MALME-3M melanoma) | GI50 (CAKI-1 renal) | GI50 (CCRF-CEM leukemia) | GI50 (HCC-2998 colon) | GI50 (HCT-116 colon) | GI50 (OVCAR-3 ovarian) | GI50 (SK-MEL-28 melanoma) | GI50 (UACC-62 melanoma) | GI50 (MALME-3M melanoma) |
| --- | --- | --- | --- | --- | --- | --- | --- | --- | --- | --- | --- | --- | --- | --- | --- | --- |
| CN(C)CCNC(=O)c1cccc2ccc(-c3ccncc3)nc12 | 5.21 µM | 15.5 µM | 10.2 µM | 4.71 µM | 14.4 µM | 17.5 µM | 3.73 µM |  |  |  |  |  |  |  |  |  |
| Cc1cc(N(CCC#N)CCC#N)ccc1/C=C1\N=C(c2cc([N+](=O)[O-])ccc2Cl)N(c2cccc(Cl)c2)C1=O | > 100 µM | > 100 µM | > 100 µM | > 100 µM | > 100 µM | > 100 µM | > 100 µM | > 100 µM |  |  |  |  |  |  |  |  |
| CCCCCCCC(=O)OCC/C=C/C1OC1C1OC(=O)/C=C\C=C\c2nc(oc2C)/C=C(/C)CCC2OC2C1OC(=O)NC(C)=O (stereo not given) | 1.56 µM | 3.98 µM | 0.0739 µM | 0.368 µM | 0.142 µM | 0.159 µM | 0.0808 µM |  | 0.0664 µM | 0.0651 µM | 0.0208 µM | 0.00922 µM | 0.0537 µM | 0.0679 µM | 0.0316 µM |  |
| CC(C)(CO)N1CCN(C(=S)Nc2ccccc2)CC1 | > 100 µM |  |  | > 100 µM | > 100 µM | > 100 µM | > 100 µM | > 100 µM |  |  |  |  |  |  |  |  |
| COC1(OC)CC2OC1C1N=NN(C(=O)OC(C)(C)C)C21 (stereo not given) | > 100 µM | > 100 µM | > 100 µM |  | > 100 µM | > 100 µM | > 100 µM | > 100 µM |  |  |  |  |  |  |  |  |
| CC(C)(C)c1cc(CCC(=O)Nc2ccc(Cl)cc2)nc(NC#N)n1 | > 100 µM | > 100 µM |  | > 100 µM | > 100 µM | > 100 µM | > 100 µM |  |  |  |  |  |  |  |  |  |
| O=C1c2cccc([N+](=O)[O-])c2C(=O)N1c1ncn[nH]1 | > 100 µM | > 100 µM |  | > 100 µM | > 100 µM | > 100 µM | > 100 µM | > 100 µM |  |  |  |  |  |  |  |  |
| O=C(O)CCSC(=O)Nc1ccc([N+](=O)[O-])cc1 | > 100 µM | > 100 µM | > 100 µM | > 100 µM | > 100 µM | > 100 µM |  |  |  |  |  |  |  |  |  |  |
| O=C(CC1(O)C(=O)Nc2c(Cl)ccc(Cl)c21)c1ccc(F)cc1 (stereo not given) | > 100 µM | > 100 µM | > 100 µM |  | > 100 µM | > 100 µM |  | > 100 µM |  |  |  |  |  |  |  |  |
| CCOC1Oc2ccc(C)cc2C(=O)/C1=C\Nc1ccc(C(N)=O)cc1 (stereo not given) | 44.8 µM | 65.3 µM | 39 µM | 26.2 µM | 46.8 µM | > 100 µM | 30.8 µM |  | 20.6 µM | 20.3 µM | 20.3 µM | 13.4 µM | 18.8 µM | 51.7 µM | 13.6 µM |  |
| COc1ccc2nc3c(C(=O)NCCN(C)C)cccc3nc2c1 | > 100 µM | > 100 µM | 20 µM | 28.1 µM | 59.9 µM | 26.1 µM | 21.2 µM |  |  |  |  |  |  |  |  |  |
| CCOC(=O)/C(C#N)=C/c1[nH]c(C(=O)OCc2ccccc2)c(C)c1C | > 100 µM | > 100 µM | > 100 µM |  | > 100 µM | > 100 µM | > 100 µM | > 100 µM |  |  |  |  |  |  |  |  |
| O=C(N/C(=C\c1cccc([N+](=O)[O-])c1)c1nc2ccc([N+](=O)[O-])cc2[nH]1)c1ccccc1 | > 100 µM | 87.6 µM | > 100 µM |  | > 100 µM | > 100 µM | 46.7 µM | > 100 µM |  |  |  |  |  |  |  |  |
| COc1ccc2c(c1)C(=O)c1c-2n(CCCn2ccnc2)c(=O)c2cc([N+](=O)[O-])ccc12 | 0.366 µM |  | 0.267 µM |  | 4.41 µM | > 100 µM | 0.075 µM | 10.8 µM | < 0.01 µM |  | < 0.0194 µM |  | 0.0254 µM |  | < 0.01 µM | < 0.0197 µM |
| N#CC(C#N)=C1Nc2ccccc2S1 | 70.9 µM | > 100 µM |  | > 100 µM | 62.9 µM | 77.4 µM | > 100 µM | 34.5 µM | 24.5 µM | 45.5 µM |  | 37.7 µM | 20.3 µM | 27.7 µM | 37.2 µM | 7.62 µM |
| C[C@@H]1OC(=O)N2CCCC(=C3SCCCS3)C12 (stereo not given in full) |  | > 100 µM |  | > 100 µM | > 100 µM | > 100 µM | > 100 µM | > 100 µM |  |  |  |  |  |  |  |  |
| CC(=O)O[C@H]1C(=O)[C@@]2(C)C(C(OC(=O)c3ccccc3)[C@]3(O)CC(OC(=O)[C@H](OC(=O)CCC(=O)O)C(NC(=O)c4ccccc4)c4ccccc4)C(C)=C1C3(C)C)C1(OC(C)=O)COC1C[C@@H]2O (stereo not given in full) | > 100 µM | 0.658 µM and 1.57 µM | > 100 µM and 20.3 µM | > 100 µM | 1.76 µM and 0.459 µM |  |  | > 100 µM |  |  |  |  |  |  |  | < 0.01 µM and 0.0659 µM |
